Like-named read-outs stand apart in the source and are kept apart here.
Target: T1, human GluN1/GluN2B NMDA receptors (Homo sapiens, UniProt Q13224)
T1 construct: expressed in transfected cells
Test: Cell-based calcium flux (FLIPR) assay on cloned human NR1/NR2B ion channels expressed in mammalian cells (standard and HTS buffer variants);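 also: stable Tet-On inducible cell line, Ca2+ influx triggered by glutamate at about EC40 plus 10 µM glycine, fluorescent dye read-out over 5 min, normalized to control wells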

[1] = standard assay buffer (0.5 mM MgCl2 dye loading; 137 mM NaCl, 4 mM KCl assay buffer), human GluN1/GluN2B cells, read-out: NR2B IC50 (μM) standard assay
[2] = standard assay buffer (0.5 mM MgCl2 in dye loading buffer; 137 mM NaCl, 4 mM KCl in assay buffer), human GluN1/GluN2B, read-out: NR2B IC50 (μM) standard assay
[3] = HTS assay buffer (1.5 mM MgCl2 in dye loading buffer; 150 mM NaCl, 3 mM KCl in assay buffer), human GluN1/GluN2B, read-out: NR2B IC50 (μM) HTS assay

T1 sequence (Q13224 27-1484, other chains not shown): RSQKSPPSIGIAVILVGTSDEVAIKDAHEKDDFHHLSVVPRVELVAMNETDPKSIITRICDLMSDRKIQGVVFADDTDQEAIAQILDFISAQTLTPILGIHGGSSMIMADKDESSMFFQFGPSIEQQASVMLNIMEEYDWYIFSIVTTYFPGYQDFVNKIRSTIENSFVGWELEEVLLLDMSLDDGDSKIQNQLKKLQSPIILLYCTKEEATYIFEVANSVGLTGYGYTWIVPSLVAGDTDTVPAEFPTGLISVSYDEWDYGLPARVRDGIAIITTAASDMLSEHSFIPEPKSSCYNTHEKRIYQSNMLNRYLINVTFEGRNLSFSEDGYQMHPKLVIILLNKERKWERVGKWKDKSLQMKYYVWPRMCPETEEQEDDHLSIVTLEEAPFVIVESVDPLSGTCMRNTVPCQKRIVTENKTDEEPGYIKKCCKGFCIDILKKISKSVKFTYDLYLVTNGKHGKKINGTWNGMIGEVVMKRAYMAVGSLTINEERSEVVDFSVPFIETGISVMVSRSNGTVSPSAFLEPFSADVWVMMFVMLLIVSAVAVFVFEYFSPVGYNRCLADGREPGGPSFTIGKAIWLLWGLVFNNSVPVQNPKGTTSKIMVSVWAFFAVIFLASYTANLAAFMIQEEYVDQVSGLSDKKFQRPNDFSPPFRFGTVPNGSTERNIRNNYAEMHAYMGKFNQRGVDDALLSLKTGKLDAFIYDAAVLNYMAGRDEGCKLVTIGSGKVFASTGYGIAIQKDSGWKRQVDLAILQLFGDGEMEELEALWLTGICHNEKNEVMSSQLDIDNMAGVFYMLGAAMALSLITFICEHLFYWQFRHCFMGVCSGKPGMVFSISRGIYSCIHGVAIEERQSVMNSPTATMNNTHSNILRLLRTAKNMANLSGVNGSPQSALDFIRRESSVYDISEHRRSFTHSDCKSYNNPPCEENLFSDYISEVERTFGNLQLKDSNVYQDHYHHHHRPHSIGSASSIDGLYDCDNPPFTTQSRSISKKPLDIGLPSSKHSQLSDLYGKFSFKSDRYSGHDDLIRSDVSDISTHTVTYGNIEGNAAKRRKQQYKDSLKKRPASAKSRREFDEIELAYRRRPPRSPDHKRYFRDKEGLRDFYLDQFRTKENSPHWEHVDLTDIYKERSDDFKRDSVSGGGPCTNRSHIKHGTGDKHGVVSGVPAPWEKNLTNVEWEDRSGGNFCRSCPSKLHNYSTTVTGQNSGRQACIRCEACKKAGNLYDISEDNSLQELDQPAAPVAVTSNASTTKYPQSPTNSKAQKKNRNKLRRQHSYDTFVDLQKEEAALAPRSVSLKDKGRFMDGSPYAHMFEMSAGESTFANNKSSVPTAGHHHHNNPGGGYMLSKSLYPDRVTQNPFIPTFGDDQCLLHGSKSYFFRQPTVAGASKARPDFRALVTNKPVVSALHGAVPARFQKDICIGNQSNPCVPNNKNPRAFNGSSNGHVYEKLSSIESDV

Row | Structure (SMILES) | IC50 [1] [µM] | IC50 [2] [µM] | also measured
1 | O=c1[nH]c2ncc(-c3cccc(C(F)(F)F)c3)cc2n1Cc1ncccn1 [Example 227, 1-(Pyrimidin-2-ylmethyl)-6-[3-(trifluoromethyl)phenyl]-3H-imidazo[4,5-b]pyridin-2-one] | 0.096 | – | –
2 | O=c1[nH]c2ncc(-c3cccc(C(F)(F)F)c3)cc2n1Cc1cccnn1 [Example 232, 1-(Pyridazin-3-ylmethyl)-6-[3-(trifluoromethyl)phenyl]-3H-imidazo[4,5-b]pyridin-2-one] | 0.017 | – | –
3 | Cc1csc(-c2cnc3[nH]c(=O)n(Cc4nc(C)no4)c3c2)c1 [Example 127, 1-[(3-Methyl-1,2,4-oxadiazol-5-yl)methyl]-6-(4-methyl-2-thienyl)-3H-imidazo[4,5-b]pyridin-2-one] | 0.095 | – | –
4 | Cn1c(=O)n(CC(=O)N2CC(F)C2)c2cc(-c3ccsc3C(F)(F)F)cnc21 [Example 92, 1-[2-(3-Fluoroazetidin-1-yl)-2-oxo-ethyl]-3-methyl-6-[2-(trifluoromethyl)-3-thienyl]imidazo[4,5-b]pyridin-2-one] | 0.249 | – | –
5 | Cc1cncc(Cn2c(=O)[nH]c3ncc(-c4ccc(F)c(F)c4)cc32)c1 [Example 272, 6-(3,4-Difluorophenyl)-1-[(5-methyl-3-pyridyl)methyl]-3H-imidazo[4,5-b]pyridin-2-one] | 0.034 | – | –
6 | Cn1cc(Cn2c(=O)[nH]c3ncc(-c4ccc(F)cc4)cc32)cn1 [Example 15, 6-(4-Fluorophenyl)-1-[(1-methylpyrazol-4-yl)methyl]-3H-imidazo[4,5-b]pyridin-2-one] | 0.204 | – | –
7 | O=c1[nH]c2ncc(-c3cccc(C(F)(F)F)c3)cc2n1CCN1CCC(F)CC1 [Example 162, 1-[2-(4-Fluoro-1-piperidyl)ethyl]-6-[3-(trifluoromethyl)phenyl]-3H-imidazo[4,5-b]pyridin-2-one] | 1.1 | – | –
8 | Cn1ccc(Cn2c(=O)[nH]c3ncc(-c4ccc(F)cc4)cc32)n1 [Example 128, 6-(4-Fluorophenyl)-1-[(1-methylpyrazol-3-yl)methyl]-3H-imidazo[4,5-b]pyridin-2-one] | 5.16 | – | –
9 | COc1ccc(-c2cnc3[nH]c(=O)n(CC(=O)N(C)C4CC4)c3c2)cc1 [Example 41, N-Cyclopropyl-2-[6-(4-methoxyphenyl)-2-oxo-3H-imidazo[4,5-b]pyridin-1-yl]-N-methyl-acetamide] | – | – | IC50 (HTS assay buffer (1.5 mM MgCl2 dye loading; 150 mM NaCl, 3 mM KCl assay buffer), human GluN1/GluN2B cells, read-out: NR2B IC50 (μM) HTS assay): 8.72 µM
10 | Cc1cc(Cn2c(=O)[nH]c3ncc(-c4cccc(C(F)(F)F)c4)cc32)no1 [Example 19, 1-[(5-Methylisoxazol-3-yl)methyl]-6-[3-(trifluoromethyl)phenyl]-3H-imidazo[4,5-b]pyridin-2-one] | 0.124 | – | –
11 | COc1cccnc1Cn1c(=O)[nH]c2ncc(-c3cccc(C(F)(F)F)c3)cc21 [Example 233, 1-[(3-Methoxy-2-pyridyl)methyl]-6-[3-(trifluoromethyl)phenyl]-3H-imidazo[4,5-b]pyridin-2-one] | 2.83 | – | –
12 | CNC(=O)Cn1c(=O)[nH]c2ncc(-c3ccc(OC)c(C)c3)cc21 [Example 439, 2-[6-(4-Methoxy-3-methyl-phenyl)-2-oxo-3H-imidazo[4,5-b]pyridin-1-yl]-N-methyl-acetamide] | – | – | IC50 [3]: 3.37 µM
13 | N#Cc1cccc(Cn2c(=O)[nH]c3ncc(-c4ccc(F)c(Cl)c4)cc32)c1 [Example 480, 3-[[6-(3-Chloro-4-fluoro-phenyl)-2-oxo-3H-imidazo[4,5-b]pyridin-1-yl]methyl]benzonitrile] | – | – | IC50 [3]: 4.22 µM
14 | O=c1[nH]c2ncc(-c3cccc(C(F)(F)F)c3)cc2n1CCN1CCCCC1 [Example 161, 1-[2-(1-Piperidyl)ethyl]-6-[3-(trifluoromethyl)phenyl]-3H-imidazo[4,5-b]pyridin-2-one] | 1.43 | – | –
15 | Cc1ccncc1Cn1c(=O)[nH]c2ncc(-c3cccc(F)c3)cc21 [Example 276, 6-(3-Fluorophenyl)-1-[(4-methyl-3-pyridyl)methyl]-3H-imidazo[4,5-b]pyridin-2-one] | 0.034 | – | –
16 | Cn1c(=O)n(Cc2ccncn2)c2cc(-c3cccc(F)c3)cnc21 [Example 7, 6-(3-Fluorophenyl)-3-methyl-1-(pyrimidin-4-ylmethyl)imidazo[4,5-b]pyridin-2-one] | 6.77 | – | –

Further lines, with some results ahead:

Row | IC50 [1] [µM] | IC50 [2] [µM] | Structure (SMILES) | also measured
17 | – | 0.036 | O=C(Cn1c(=O)n(CF)c2ncc(-c3ccc(C(F)(F)F)s3)cc21)N1CCC1 [Example 534, 1-[2-(Azetidin-1-yl)-2-oxo-ethyl]-3-(fluoromethyl)-6-[5-(trifluoromethyl)-2-thienyl]imidazo[4,5-b]pyridin-2-one] | –
18 | – | 0.064 | CN(CCF)C(=O)Cn1c(=O)n(C)c2ncc(-c3ccc(C(F)(F)F)s3)cc21 [Example 577, N-(2-Fluoroethyl)-N-methyl-2-[3-methyl-2-oxo-6-[5-(trifluoromethyl)-2-thienyl]imidazo[4,5-b]pyridin-1-yl]acetamide] | –
19 | – | 0.056 | Cn1c(=O)n(Cc2cccnn2)c2cc(-c3cccc(Cl)c3)cnc21 [Example 376, 6-(3-Chlorophenyl)-3-methyl-1-(pyridazin-3-ylmethyl)imidazo[4,5-b]pyridin-2-one] | –
20 | – | > 10 | CN(C)C(=O)Cn1c(=O)n(C)c2ncc(-c3cccnc3)cc21 [Example 429, N,N-Dimethyl-2-[3-methyl-2-oxo-6-(3-pyridyl)imidazo[4,5-b]pyridin-1-yl]acetamide] | –
21 | – | 0.008 | O=C(Cn1c(=O)[nH]c2ncc(-c3ccc(F)c(Cl)c3)cc21)NC1CC1 [Example 448, 2-[6-(3-Chloro-4-fluoro-phenyl)-2-oxo-3H-imidazo[4,5-b]pyridin-1-yl]-N-cyclopropyl-acetamide] | –
22 | – | 0.025 | CN(C)C(=O)Cn1c(=O)n(C)c2ncc(-c3ccc(F)c(C(F)F)c3)cc21 [Example 533, 2-[6-[3-(Difluoromethyl)-4-fluoro-phenyl]-3-methyl-2-oxo-imidazo[4,5-b]pyridin-1-yl]-N,N-dimethyl-acetamide] | –
23 | – | 0.053 | Cn1c(=O)n(CC(=O)N2CC(F)C2)c2cc(-c3ccc(Cl)c(OC(F)F)c3)cnc21 [Example 593, 6-[4-Chloro-3-(difluoromethoxy)phenyl]-1-[2-(3-fluoroazetidin-1-yl)-2-oxo-ethyl]-3-methyl-imidazo[4,5-b]pyridin-2-one] | –
24 | 0.932 | – | O=c1[nH]c2ncc(-c3cccc(F)c3)cc2n1Cc1ccccn1 [Example 281, 6-(3-Fluorophenyl)-1-(2-pyridylmethyl)-3H-imidazo[4,5-b]pyridin-2-one] | –
25 | – | 0.416 | COc1cccc(F)c1-c1cnc2[nH]c(=O)n(CC(=O)NC3CC3)c2c1 [Example 455, N-Cyclopropyl-2-[6-(2-fluoro-6-methoxy-phenyl)-2-oxo-3H-imidazo[4,5-b]pyridin-1-yl]acetamide] | –
26 | – | 0.018 | Cn1c(=O)n(CC(=O)N2CC(F)C2)c2cc(-c3ccc(F)c(C(F)F)c3)cnc21 [Example 585, 6-[3-(Difluoromethyl)-4-fluoro-phenyl]-1-[2-(3-fluoroazetidin-1-yl)-2-oxo-ethyl]-3-methyl-imidazo[4,5-b]pyridin-2-one] | –
27 | – | 0.031 | COc1cccc(-c2cnc3[nH]c(=O)n(Cc4ccccc4C#N)c3c2)c1 [Example 485, 2-[[6-(3-Methoxyphenyl)-2-oxo-3H-imidazo[4,5-b]pyridin-1-yl]methyl]benzonitrile] | –
28 | – | 0.05 | Cc1cccc(-c2cnc3c(c2)n(CC(=O)N2CC(F)C2)c(=O)n3C)c1 [Example 404, 1-[2-(3-Fluoroazetidin-1-yl)-2-oxo-ethyl]-3-methyl-6-(m-tolyl)imidazo[4,5-b]pyridin-2-one] | –

Source: US11759455B2, “Substituted 1H-imidazo[4,5-b]pyridin-2(3H)-ones and their use as GLUN2B receptor modulators” (JANSSEN PHARMACEUTICA NV, priority 2016, dated 2023)
